Test results from ChEMBL document CHEMBL3885881, “DrugMatrix”.

Species on record: Rattus norvegicus
Assay: DrugMatrix - Regimen: Daily Repeat
Format: toxicity, organism-based, Sprague-Dawley
Design: regimen Daily Repeat, gender Male, age 6-8 weeks
Details: in vivo, po, route oral GAVAGE, vehicle .5 % CMC; for ABSOLUTE BASOPHIL / ABSOLUTE EOSINOPHIL / ABSOLUTE LYMPHOCYTE / ABSOLUTE MONOCYTE / ABSOLUTE SEGMENTED NEUTROPHIL / BASOPHIL / EOSINOPHIL / ERYTHROCYTE COUNT / HEMATOCRIT / HEMOGLOBIN / LEUKOCYTE COUNT / LYMPHOCYTE / MEAN CORPUSCULAR HEMOGLOBIN / MEAN CORPUSCULAR HEMOGLOBIN CONCENTRATION / MEAN CORPUSCULAR VOLUME / MONOCYTE / NEUTROPHIL / NUCLEATED RED BLOOD CELLS / PLATELET COUNT: tissue Blood; for ALANINE AMINOTRANSFERASE / ALBUMIN / ALKALINE PHOSPHATASE / ASPARTATE AMINOTRANSFERASE / BLOOD UREA NITROGEN / CARBON DIOXIDE / CHLORIDE / CHOLESTEROL / CREATINE PHOSPHOKINASE / CREATININE / GLUCOSE / LACTATE DEHYDROGENASE / LIPASE / PHOSPHORUS / POTASSIUM / SODIUM / TOTAL BILIRUBIN / TOTAL PROTEIN / URIC ACID: tissue Plasma
[1] = 50 mg/kg, 120 h, dose level Low, time 5 day
[2] = 2500 mg/kg, 72 h, dose level High, time 3 day
[3] = 2500 mg/kg, 120 h, dose level High, time 5 day

For CC(=O)O[C@]1(C(C)=O)CC[C@H]2[C@@H]3C=C(Cl)C4=CC(=O)[C@@H]5C[C@@H]5[C@]4(C)[C@H]3CC[C@@]21C [CYPROTERONE ACETATE], the “ABSOLUTE BASOPHIL” value [1] was 0 CELLS/uL, the “ABSOLUTE EOSINOPHIL” value [1] was 24.33 CELLS/uL and the “ABSOLUTE LYMPHOCYTE” value [1] was 7928 CELLS/uL. For the same molecule, the “ABSOLUTE MONOCYTE” value [1] was 144 CELLS/uL, the “ABSOLUTE SEGMENTED NEUTROPHIL” value [1] was 637 CELLS/uL and the BASOPHIL [1] was 0%. For the same molecule, the EOSINOPHIL [1] was 0.33%, the “ERYTHROCYTE COUNT” value [1] was 5.93 x10E6/uL and the HEMATOCRIT [1] was 37.07%. For the same molecule, the HEMOGLOBIN [1] was 14.9 G/DL, the “LEUKOCYTE COUNT” value [1] was 8.73 x10E3/uL and the LYMPHOCYTE [1] was 90.33%. For the same molecule, the “MEAN CORPUSCULAR HEMOGLOBIN” value [1] was 25.13 pg, the “MEAN CORPUSCULAR HEMOGLOBIN CONCENTRATION” value [1] was 40.23 G/DL and the “MEAN CORPUSCULAR VOLUME” value [1] was 62.47 fL. For the same molecule, the MONOCYTE [1] was 1.67%, the NEUTROPHIL [1] was 7.67% and the “NUCLEATED RED BLOOD CELLS” value [1] was 0 /100WBC. For the same molecule, the “PLATELET COUNT” value [1] was 1115.67 x10E3/uL, the “ALANINE AMINOTRANSFERASE” value [1] was 68.33 u/L and the ALBUMIN [1] was 4.4 G/DL. The “ALKALINE PHOSPHATASE” value [1] was 339 u/L, the “ASPARTATE AMINOTRANSFERASE” value [1] was 88 u/L and the “BLOOD UREA NITROGEN” value [1] was 15.67 mg/dL. The “CARBON DIOXIDE” value [1] was 30.33 mmol/L, the CHLORIDE [1] was 101 MEQ/L and the CHOLESTEROL [1] was 79 mg/dL. For the same molecule, the “CREATINE PHOSPHOKINASE” value [1] was 291 u/L, the CREATININE [1] was 0.18 mg/dL and the GLUCOSE [1] was 165 mg/dL. The “LACTATE DEHYDROGENASE” value [1] was 169 u/L, the LIPASE [1] was 11 u/L and the PHOSPHORUS [1] was 12.3 mg/dL. The POTASSIUM [1] was 5.54 MEQ/L, the SODIUM [1] was 144.17 MEQ/L and the “TOTAL BILIRUBIN” value [1] was 0.13 mg/dL. For the same molecule, the “TOTAL PROTEIN” value [1] was 6.5 G/DL, the “URIC ACID” value [1] was 1.33 mg/dL and the “ABSOLUTE BASOPHIL” value [2] was 0 CELLS/uL. For the same molecule, the “ABSOLUTE EOSINOPHIL” value [2] was 156.67 CELLS/uL, the “ABSOLUTE LYMPHOCYTE” value [2] was 10772 CELLS/uL and the “ABSOLUTE MONOCYTE” value [2] was 88.67 CELLS/uL. For the same molecule, the “ABSOLUTE SEGMENTED NEUTROPHIL” value [2] was 1249.33 CELLS/uL, the BASOPHIL [2] was 0% and the EOSINOPHIL [2] was 1.33%. For the same molecule, the “ERYTHROCYTE COUNT” value [2] was 5.59 x10E6/uL, the HEMATOCRIT [2] was 36.7% and the HEMOGLOBIN [2] was 14.03 G/DL. For the same molecule, the “LEUKOCYTE COUNT” value [2] was 12.27 x10E3/uL, the LYMPHOCYTE [2] was 88% and the “MEAN CORPUSCULAR HEMOGLOBIN” value [2] was 25.07 pg. For the same molecule, the “MEAN CORPUSCULAR HEMOGLOBIN CONCENTRATION” value [2] was 38.23 G/DL, the “MEAN CORPUSCULAR VOLUME” value [2] was 65.63 fL and the MONOCYTE [2] was 0.67%. For the same molecule, the NEUTROPHIL [2] was 10%, the “NUCLEATED RED BLOOD CELLS” value [2] was 0.33 /100WBC and the “PLATELET COUNT” value [2] was 1080.33 x10E3/uL. The “ALANINE AMINOTRANSFERASE” value [2] was 69.67 u/L, the ALBUMIN [2] was 4.07 G/DL and the “ALKALINE PHOSPHATASE” value [2] was 424.67 u/L. The “ASPARTATE AMINOTRANSFERASE” value [2] was 99.67 u/L, the “BLOOD UREA NITROGEN” value [2] was 14.33 mg/dL and the “CARBON DIOXIDE” value [2] was 30 mmol/L. The CHLORIDE [2] was 100.67 MEQ/L, the CHOLESTEROL [2] was 113.33 mg/dL and the “CREATINE PHOSPHOKINASE” value [2] was 639.67 u/L. The CREATININE [2] was 0.2 mg/dL, the GLUCOSE [2] was 151.33 mg/dL and the “LACTATE DEHYDROGENASE” value [2] was 603.33 u/L. For the same molecule, the LIPASE [2] was 12.67 u/L, the PHOSPHORUS [2] was 11.2 mg/dL and the POTASSIUM [2] was 6.3 MEQ/L. The SODIUM [2] was 141.73 MEQ/L, the “TOTAL BILIRUBIN” value [2] was 0.13 mg/dL and the “TOTAL PROTEIN” value [2] was 6 G/DL. For the same molecule, the “URIC ACID” value [2] was 0.83 mg/dL, the “ABSOLUTE BASOPHIL” value [3] was 0 CELLS/uL and the “ABSOLUTE EOSINOPHIL” value [3] was 62.33 CELLS/uL. The “ABSOLUTE LYMPHOCYTE” value [3] was 8852.33 CELLS/uL, the “ABSOLUTE MONOCYTE” value [3] was 146.33 CELLS/uL and the “ABSOLUTE SEGMENTED NEUTROPHIL” value [3] was 2339 CELLS/uL. The BASOPHIL [3] was 0%, the EOSINOPHIL [3] was 0.67% and the “ERYTHROCYTE COUNT” value [3] was 5.55 x10E6/uL. For the same molecule, the HEMATOCRIT [3] was 34.3%, the HEMOGLOBIN [3] was 13.77 G/DL and the “LEUKOCYTE COUNT” value [3] was 11.4 x10E3/uL. For the same molecule, the LYMPHOCYTE [3] was 80%, the “MEAN CORPUSCULAR HEMOGLOBIN” value [3] was 24.8 pg and the “MEAN CORPUSCULAR HEMOGLOBIN CONCENTRATION” value [3] was 40.13 G/DL. For the same molecule, the “MEAN CORPUSCULAR VOLUME” value [3] was 61.87 fL, the MONOCYTE [3] was 1.33% and the NEUTROPHIL [3] was 18%. The “NUCLEATED RED BLOOD CELLS” value [3] was 0.33 /100WBC, the “PLATELET COUNT” value [3] was 1381.33 x10E3/uL and the “ALANINE AMINOTRANSFERASE” value [3] was 94 u/L. The ALBUMIN [3] was 4.3 G/DL, the “ALKALINE PHOSPHATASE” value [3] was 317.67 u/L and the “ASPARTATE AMINOTRANSFERASE” value [3] was 101.67 u/L. For the same molecule, the “BLOOD UREA NITROGEN” value [3] was 21.33 mg/dL, the “CARBON DIOXIDE” value [3] was 23.67 mmol/L and the CHLORIDE [3] was 98.67 MEQ/L. The CHOLESTEROL [3] was 98.67 mg/dL, the “CREATINE PHOSPHOKINASE” value [3] was 467 u/L and the CREATININE [3] was 0.27 mg/dL. For the same molecule, the GLUCOSE [3] was 223 mg/dL, the “LACTATE DEHYDROGENASE” value [3] was 496 u/L and the LIPASE [3] was 10.67 u/L. For the same molecule, the PHOSPHORUS [3] was 12.8 mg/dL, the POTASSIUM [3] was 6.34 MEQ/L and the SODIUM [3] was 142.07 MEQ/L. The “TOTAL BILIRUBIN” value [3] was 0.17 mg/dL, the “TOTAL PROTEIN” value [3] was 7 G/DL and the “URIC ACID” value [3] was 2.1 mg/dL.
